We go through 1 compound from patent US20230085721A1, “PIGMENT COMPRISING RAPHANUS SATIVUS EXTRACT AND MONTMORILLONITE” (GIVAUDAN SA, priority 2020, published 2023).

Marks after values point to notes of the source that are not given here.

The test deals with human normal keratinocytes (NHEKs). Description: ROS production after oxidative stress (DCFH-DA method). It counts as cell-based. The following applies: 200 μM. As to the method:
The anti-oxidant properties of Raphanus sativus L. root extract was evaluated using human normal keratinocytes (NHEKs) by quantification of Reactive Oxygen Species (ROS) production after oxidative stress exposure according to the dichlorodihydrofluorescein diacetate (DCFH-DA; “Dichloro-dihydro-fluorescein diacetate (DCFH-DA) assay: a quantitative method for oxidative stress assessment of nanoparticle-treated cells”. Aranda et al. Toxicol In Vitro. 2013, 27(2):954-63.) method. In contact with cells, DCFH-DA is cleaved inside the cell to DCFH which is able to interact with reactive oxygen species (ROS) during oxidative stress leading to fluorescence emission. Consequently, the fluorescence emitted is correlated to the antioxidant property of the tested compound. The cell culture was done on primary cells freshly isolated from biopsies. Normal Human Epidermal Keratinocytes (NHEKs) were seeded in a black plate with a glass bottom at 20′000 cells per well in 96-wells plates with a type I collagen pre-coating in quadruplicate. The cells were incubated for 24 hours in complete medium (Epilife medium supplemented with HKGS) at 37° C. with 5% CO2. […] Finally, the emitted fluorescence was measured in darkness by excitation wavelength at 488 nm and emission wavelength at 525 nm with microplate reader (TECAN). […]

For `Oc1ccc(C=Cc2cc(O)cc(O)c2)cc1` [Resveratrol], where the note is “5 mM TBP, p < 0.001”, the “Comparison to oxidative stress, no active” value was −76%***. The “Mean relative to TBP condition” value (ROS, NHEKs, oxidative stress 5 mM TBP) is on record as 24.0%.
